Measured values reported in the NIST ThermoML archive (doi:10.1016/j.jct.2011.10.023).

Details: Liquid, Vibrating tube method

CCCCCCCCCCCO [1-undecanol]
mass density [kg/m3]
Details | 298.15 K | 308.15 K | 318.15 K | 328.15 K | 338.15 K | 348.15 K | 358.15 K
100 kPa | 827.7 | 820.9 | 814.1 | 807.4 | 800.5 | 793.3 | 786
1000 kPa | 828.2 | 821.5 | 814.7 | 808 | 801.1 | 793.8 | 786.8
5000 kPa | 830.7 | 824 | 817.4 | 810.8 | 803.9 | 797.1 | 790
10000 kPa | 833.6 | 827.1 | 820.6 | 814.1 | 807.3 | 800.8 | 793.9
15000 kPa | 836.4 | 830 | 823.7 | 817.3 | 810.6 | 804.3 | 797.6
20000 kPa | 839.2 | 832.9 | 826.6 | 820.4 | 813.8 | 807.6 | 801.1
25000 kPa | 841.8 | 835.6 | 829.5 | 823.3 | 816.9 | 810.8 | 804.4
30000 kPa | 844.4 | 838.3 | 832.3 | 826.2 | 819.9 | 813.9 | 807.7
35000 kPa | 846.9 | 840.9 | 834.8 | 829 | 822.8 | 816.9 | 810.8
40000 kPa | 849.4 | 843.4 | 837.6 | 831.7 | 825.6 | 819.9 | 813.9
45000 kPa | 851.8 | 845.9 | 840.1 | 834.4 | 828.4 | 822.7 | 816.6
50000 kPa | 854.2 | 848.3 | 842.6 | 837 | 831 | 825.5 | 819.6
55000 kPa | 856.5 | 850.7 | 845.1 | 839.5 | 833.6 | 828.1 | 822.4
60000 kPa | 858.7 | 852.9 | 847.3 | 841.8 | 836 | 830.7 | 824.9
